Experimental data taken from US20240247080A1, “GLP1/GIP/NPY2 RECEPTOR TRIPLE AGONISTS” (Boehringer Ingelheim International GmbH, priority 2022, published 2024).
Read-outs that look alike come from different tables or passages of the source. Starred links: 1 amine or outer side, 2 acyl side, 3 side chain; linkers in the order of their positions; H or OH if unused. Non-standard residues stand in square brackets, D forms with d. Groups on a side chain read outwards from the residue. *: point of attachment. C20 diacid = O=C(O)CCCCCCCCCCCCCCCCCCC(=O)*; γGlu = O=C(O)[C@H](CCC(=O)[*:2])N[*:1]; εLys = N[C@@H](CCCCN[*:1])C(=O)[*:2]; Aib = CC(C)(N)C(=O)O

Tests used:
Type in all cases: cell-based
hGLP1R = biological target: T1, hGLP1R (Homo sapiens, UniProt P43220); test: hGLP1R CreLuc reporter gene assay in 0.5% and 100% plasma; conditions: CreLuc reporter gene assay
T1 construct: expressed in transfected cells; host or cells: HEK-293 cells carrying a CRE-luciferase reporter gene
T1 sequence (P43220 24-463): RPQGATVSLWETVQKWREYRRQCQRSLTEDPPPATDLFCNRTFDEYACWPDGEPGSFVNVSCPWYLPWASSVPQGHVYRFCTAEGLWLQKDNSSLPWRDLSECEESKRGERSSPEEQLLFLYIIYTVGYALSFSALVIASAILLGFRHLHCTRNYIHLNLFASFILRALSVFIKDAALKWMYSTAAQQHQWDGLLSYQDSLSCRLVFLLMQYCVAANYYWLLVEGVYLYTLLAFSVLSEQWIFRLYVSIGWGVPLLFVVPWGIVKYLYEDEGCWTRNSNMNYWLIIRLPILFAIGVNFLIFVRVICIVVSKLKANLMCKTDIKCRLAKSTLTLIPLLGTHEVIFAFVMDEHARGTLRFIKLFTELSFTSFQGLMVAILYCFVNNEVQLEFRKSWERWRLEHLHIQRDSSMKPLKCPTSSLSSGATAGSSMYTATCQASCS
Method in brief: (§1)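 Agonist EC50s came from 8-concentration curves over four decades, fitted by non-linear variable-slope regression of CRE-driven luciferase luminescence. Cells were exposed 4 h at 37 °C, in buffer with 0.5% human plasma or in 100% plasma; GIPR was expressed in CHO cells, GLP-1R and NPY2R in HEK cells.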

hGIPR = biological target: T2, hGIPR (Homo sapiens, UniProt P48546); test: hGIPR CreLuc reporter gene assay in 0.5% and 100% plasma; conditions: CreLuc reporter gene assay
T2 construct: expressed in transfected cells; host or cells: CHO cells carrying a CRE-luciferase reporter gene
T2 sequence (P48546 22-466): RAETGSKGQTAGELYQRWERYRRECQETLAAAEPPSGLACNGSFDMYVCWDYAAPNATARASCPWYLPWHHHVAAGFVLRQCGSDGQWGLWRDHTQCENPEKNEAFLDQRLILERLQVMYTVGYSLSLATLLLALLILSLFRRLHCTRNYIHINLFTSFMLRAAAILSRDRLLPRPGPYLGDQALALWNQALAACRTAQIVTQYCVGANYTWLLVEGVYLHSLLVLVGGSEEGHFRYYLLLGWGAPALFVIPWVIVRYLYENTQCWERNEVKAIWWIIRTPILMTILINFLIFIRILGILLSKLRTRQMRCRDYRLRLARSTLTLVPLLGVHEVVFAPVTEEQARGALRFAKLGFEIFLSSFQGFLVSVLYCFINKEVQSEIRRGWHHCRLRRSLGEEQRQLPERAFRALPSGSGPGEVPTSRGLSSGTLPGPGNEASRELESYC
Method in brief: as §1

hNPY2R = biological target: T3, hNPY2R (Homo sapiens, UniProt P49146); test: hNPY2R CreLuc reporter gene assay in 0.5% and 100% plasma; conditions: CreLuc reporter gene assay, 0.5% human plasma; read-out: hNPY2R 0.5% hP
T3 construct: expressed in transfected cells; host or cells: HEK-293 cells carrying a CRE-luciferase reporter gene
T3 sequence (P49146 1-381): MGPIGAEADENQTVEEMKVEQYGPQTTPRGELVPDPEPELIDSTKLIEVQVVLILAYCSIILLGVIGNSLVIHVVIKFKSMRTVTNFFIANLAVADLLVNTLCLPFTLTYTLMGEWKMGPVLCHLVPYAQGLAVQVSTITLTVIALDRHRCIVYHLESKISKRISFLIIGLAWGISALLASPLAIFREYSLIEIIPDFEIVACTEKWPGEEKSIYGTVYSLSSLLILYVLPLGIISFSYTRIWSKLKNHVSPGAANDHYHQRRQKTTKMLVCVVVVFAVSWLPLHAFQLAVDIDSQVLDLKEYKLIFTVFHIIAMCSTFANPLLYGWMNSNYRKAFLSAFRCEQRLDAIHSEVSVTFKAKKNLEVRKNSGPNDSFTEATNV
Method in brief: as §1

[1] = 0.5% human plasma, read-out: hGLP1R 0.5% hP
[2] = 100% human plasma, read-out: hGLP1R 100% hP
[3] = 0.5% human plasma, read-out: hGIPR 0.5% hP
[4] = 100% human plasma, read-out: hGIPR 100% hP

| EC50 (hGLP1R; [1]) | EC50 (hGLP1R; [2]) | EC50 (hGIPR; [3]) | EC50 (hGIPR; [4]) | EC50 (hNPY2R) | Molecule |
| --- | --- | --- | --- | --- | --- |
| 0.26 nM | 3.11 nM | 0.1 nM | 1.17 nM | 18 nM | CC[C@H](C)[C@H](NC(=O)[C@H](CC(C)C)NC(=O)[C@H](Cc1c[nH]c2ccccc12)NC(=O)[C@H](CCC(=O)O)NC(=O)[C@@H](NC(=O)[C@H](Cc1ccccc1)NC(=O)[C@H](C)NC(=O)C(C)(C)NC(=O)[C@H](CCC(N)=O)NC(=O)[C@H](C)NC(=O)[C@H](CCC(N)=O)NC(=O)[C@H](CCCCN)NC(=O)[C@H](CCC(=O)O)NC(=O)[C@H](CC(C)C)NC(=O)C(C)(C)NC(=O)[C@@H](NC(=O)[C@H](CO)NC(=O)[C@H](Cc1ccc(O)cc1)NC(=O)[C@H](CC(=O)O)NC(=O)[C@H](CO)NC(=O)[C@@H](NC(=O)[C@H](Cc1ccccc1)NC(=O)[C@@H](NC(=O)CNC(=O)[C@H](CCC(=O)O)NC(=O)C(C)(C)NC(=O)[C@@H](N)Cc1ccc(O)cc1)[C@@H](C)O)[C@@H](C)O)[C@@H](C)CC)C(C)C)C(=O)N[C@@H](CCCCNC(=O)[C@@H](N)CCCCNC(=O)CC[C@H](NC(=O)CC[C@H](NC(=O)CC[C@H](NC(=O)CC[C@H](NC(=O)CC[C@H](NC(=O)CC[C@H](NC(=O)CCCCCCCCCCCCCCCCCCC(=O)O)C(=O)O)C(=O)O)C(=O)O)C(=O)O)C(=O)O)C(=O)O)C(=O)NCC(=O)NCC(=O)N1CCC[C@H]1C(=O)N[C@@H](CO)C(=O)N[C@@H](CCC(=O)O)C(=O)NCC(=O)N[C@@H](CCC(=O)O)C(=O)N[C@@H](CO)C(=O)N[C@@H](CC(C)C)C(=O)N[C@@H](CCCNC(=N)N)C(=O)N[C@@H](Cc1c[nH]cn1)C(=O)N[C@@H](Cc1ccc(O)cc1)C(=O)N[C@@H](Cc1ccc(O)cc1)C(=O)N[C@@H](CC(N)=O)C(=O)N[C@@H](Cc1c[nH]c2ccccc12)C(=O)N[C@@H](CC(C)C)C(=O)N[C@H](C(=O)N[C@@H](CCCNC(=N)N)C(=O)N[C@@H](CCC(N)=O)C(=O)N[C@@H](CCCNC(=N)N)C(=O)N[C@@H](Cc1ccc(O)cc1)C(N)=O)[C@@H](C)O [Compound 237, Y-Aib-E-G-T-F-T-S-D-Y-S-I-Aib-L-E-K-Q-A-Q-Aib-A-F-V-E-W-L-I-K(1,3)-GGPSEGESLRHYYNWLTRQRY-NH2.C20DA-gGlu-gGlu-gGlu-gGlu-gGlu-gGlu-eLys(1,2)] |
| 0.13 nM | 1.78 nM | 0.19 nM | 1.25 nM | 17.8 nM | CC[C@H](C)[C@H](NC(=O)[C@H](CC(C)C)NC(=O)[C@H](Cc1c[nH]c2ccccc12)NC(=O)[C@H](CCC(N)=O)NC(=O)[C@@H](NC(=O)[C@H](Cc1ccccc1)NC(=O)[C@H](C)NC(=O)C(C)(C)NC(=O)[C@H](CCC(N)=O)NC(=O)[C@H](C)NC(=O)[C@H](CCC(N)=O)NC(=O)[C@H](CCCCN)NC(=O)[C@H](CCC(=O)O)NC(=O)[C@H](CC(C)C)NC(=O)C(C)(C)NC(=O)[C@@H](NC(=O)[C@H](CO)NC(=O)[C@H](Cc1ccc(O)cc1)NC(=O)[C@H](CC(=O)O)NC(=O)[C@H](CO)NC(=O)[C@@H](NC(=O)[C@H](Cc1ccccc1)NC(=O)[C@@H](NC(=O)CNC(=O)[C@H](CCC(=O)O)NC(=O)C(C)(C)NC(=O)[C@@H](N)Cc1ccc(O)cc1)[C@@H](C)O)[C@@H](C)O)[C@@H](C)CC)C(C)C)C(=O)N[C@@H](CCCCNC(=O)[C@@H](N)CCCCNC(=O)[C@H](CCC(=O)O)NC(=O)[C@H](CCC(=O)O)NC(=O)[C@H](CCC(=O)O)NC(=O)[C@H](CCC(=O)O)NC(=O)[C@H](CCC(=O)O)NC(=O)[C@H](CCC(=O)O)NC(=O)CCCCCCCCCCCCCCCCC(=O)O)C(=O)NCC(=O)NCC(=O)N1CCC[C@H]1C(=O)N[C@@H](CO)C(=O)N[C@@H](CCC(=O)O)C(=O)NCC(=O)N[C@@H](C)C(=O)N[C@@H](CO)C(=O)N[C@@H](CC(C)C)C(=O)N[C@@H](CCCNC(=N)N)C(=O)N[C@@H](Cc1c[nH]cn1)C(=O)N[C@@H](Cc1ccc(O)cc1)C(=O)N[C@@H](Cc1ccc(O)cc1)C(=O)N[C@@H](CC(N)=O)C(=O)N[C@@H](Cc1c[nH]c2ccccc12)C(=O)N[C@@H](CC(C)C)C(=O)N[C@H](C(=O)N[C@@H](CCCNC(=N)N)C(=O)N[C@@H](CCC(N)=O)C(=O)N[C@@H](CCCNC(=N)N)C(=O)N[C@@H](Cc1ccc(O)cc1)C(N)=O)[C@@H](C)O [Compound 249, Y-Aib-E-G-T-F-T-S-D-Y-S-I-Aib-L-E-K-Q-A-Q-Aib-A-F-V-Q-W-L-I-K(1,3)-GGPSEGASLRHYYNWLTRQRY-NH2.C18DA-E-E-E-E-E-E-eLys(1,2)] |
| 0.08 nM | 2.48 nM | 0.14 nM |  | 16.9 nM | CC[C@H](C)[C@H](NC(=O)[C@H](CC(C)C)NC(=O)[C@H](Cc1c[nH]c2ccccc12)NC(=O)[C@H](CCC(N)=O)NC(=O)[C@@H](NC(=O)[C@H](Cc1ccccc1)NC(=O)[C@H](C)NC(=O)C(C)(C)NC(=O)[C@H](CCC(N)=O)NC(=O)[C@H](C)NC(=O)[C@H](CCC(N)=O)NC(=O)[C@H](CCCCN)NC(=O)[C@H](CCC(=O)O)NC(=O)[C@H](CC(C)C)NC(=O)C(C)(C)NC(=O)[C@@H](NC(=O)[C@H](CO)NC(=O)[C@H](Cc1ccc(O)cc1)NC(=O)[C@H](CC(=O)O)NC(=O)[C@H](CO)NC(=O)[C@@H](NC(=O)[C@H](Cc1ccccc1)NC(=O)[C@@H](NC(=O)CNC(=O)[C@H](CCC(=O)O)NC(=O)C(C)(C)NC(=O)[C@@H](N)Cc1ccc(O)cc1)[C@@H](C)O)[C@@H](C)O)[C@@H](C)CC)C(C)C)C(=O)N[C@@H](CCCCNC(=O)[C@H](CCC(=O)O)NC(=O)[C@H](CCC(=O)O)NC(=O)[C@H](CCC(=O)O)NC(=O)[C@H](CCC(=O)O)NC(=O)[C@H](CCC(=O)O)NC(=O)CCCCCCCCCCCCCCCCC(=O)O)C(=O)NCC(=O)NCC(=O)N1CCC[C@H]1C(=O)N[C@@H](CO)C(=O)N[C@@H](CCC(=O)O)C(=O)NCC(=O)N[C@@H](C)C(=O)N[C@@H](CO)C(=O)N[C@@H](CC(C)C)C(=O)N[C@@H](CCCNC(=N)N)C(=O)N[C@@H](Cc1c[nH]cn1)C(=O)N[C@@H](Cc1ccc(O)cc1)C(=O)N[C@@H](Cc1ccc(O)cc1)C(=O)N[C@@H](CC(N)=O)C(=O)N[C@@H](Cc1c[nH]c2ccccc12)C(=O)N[C@@H](CC(C)C)C(=O)N[C@H](C(=O)N[C@@H](CCCNC(=N)N)C(=O)N[C@@H](CCC(N)=O)C(=O)N[C@@H](CCCNC(=N)N)C(=O)N[C@@H](Cc1ccc(O)cc1)C(N)=O)[C@@H](C)O [Compound 257, Y-Aib-E-G-T-F-T-S-D-Y-S-I-Aib-L-E-K-Q-A-Q-Aib-A-F-V-Q-W-L-I-K(1,3)-GGPSEGASLRHYYNWLTRQRY-NH2.C18DA-E-E-E-E-E(1,2)] |
| 0.4 nM |  | 0.11 nM |  | 24.8 nM | H-Y[Aib]EGTFTSDYSI[Aib]LDKQAQ[Aib]AFVEWLIK([εLys-γGlu-γGlu-γGlu-γGlu-γGlu-γGlu-C20 diacid])GGPSSGASLRHYYNWLTRQRY-NH2 [Compound 128, Y-Aib-E-G-T-F-T-S-D-Y-S-I-Aib-L-D-K-Q-A-Q-Aib-A-F-V-E-W-L-I-K(1,3)-GGPSSGASLRHYYNWLTRQRY-NH2.C20DA-gGlu-gGlu-gGlu-gGlu-gGlu-gGlu-eLys(1,2)] |
|  | 14.2 nM | 0.98 nM |  | 13 nM | H-Y[Aib]EGTFTSDYSI[Aib]LEAAKQ[Aib]AFVEWLIK([εLys-γGlu-γGlu-γGlu-γGlu-γGlu-γGlu-C20 diacid])GGPSSGASLRHYYNWLTRQRY-NH2 [Compound 25, Y-Aib-E-G-T-F-T-S-D-Y-S-I-Aib-L-E-A-A-K-Q-Aib-A-F-V-E-W-L-I-K(1,3)-GGPSSGASLRHYYNWLTRQRY-NH2.C20DA-gGlu-gGlu-gGlu-gGlu-gGlu-gGlu-eLys(1,2)] |
| 0.33 nM |  | 0.98 nM |  | 24.8 nM | H-Y[Aib]EGTFTSDYSI[Aib]LEAQAQ[Aib]AFVEWLIK([εLys-γGlu-γGlu-γGlu-γGlu-γGlu-γGlu-C20 diacid])GGPSSGASLRHYYNWLTRQRY-NH2 [Compound 102, Y-Aib-E-G-T-F-T-S-D-Y-S-I-Aib-L-E-A-Q-A-Q-Aib-A-F-V-E-W-L-I-K(1,3)-GGPSSGASLRHYYNWLTRQRY-NH2.C20DA-gGlu-gGlu-gGlu-gGlu-gGlu-gGlu-eLys(1,2)] |
| 0.24 nM | 11.6 nM | 0.64 nM |  | 18.7 nM | H-Y[Aib]EGTFTSDYSI[Aib]LEEEAQ[Aib]AFVEWLIK([εLys-γGlu-γGlu-γGlu-γGlu-γGlu-γGlu-C20 diacid])GGPSSGASLRHYYNWLTRQRY-NH2 [Compound 66, Y-Aib-E-G-T-F-T-S-D-Y-S-I-Aib-L-E-E-E-A-Q-Aib-A-F-V-E-W-L-I-K(1,3)-GGPSSGASLRHYYNWLTRQRY-NH2.C20DA-gGlu-gGlu-gGlu-gGlu-gGlu-gGlu-eLys(1,2)] |
